From ChEMBL document CHEMBL5325391, “Spirolactone-type and enmein-type derivatives as potential anti-cancer agents derived from oridonin” (Bioorg Med Chem, 2022)

What was measured:
K562 [1] = assay: Antiproliferative activity against human K562 cells assessed as reduction in cell growth after 72 hrs by MTT assay; format: functional, cell-based; conditions: K562, 72 h
SW480 = assay: Antiproliferative activity against human SW480 cells assessed as reduction in cell growth after 72 hrs by MTT assay; format: functional, cell-based; conditions: SW480, 72 h
MDA-MB-231 = assay: Antiproliferative activity against human MDA-MB-231 cells assessed as reduction in cell growth after 72 hrs by MTT assay; format: functional, cell-based; conditions: MDA-MB-231, 72 h
SMMC-7721 = assay: Antiproliferative activity against human SMMC-7721 cells assessed as reduction in cell growth after 72 hrs by MTT assay; format: functional, cell-based; conditions: SMMC-7721, 72 h
K562 [2] = assay: Potency index, ratio of oridonin IC50 to compound IC50 for antiproliferative activity against human K562 cells after 72 hrs by MTT assay; format: functional
[3] = Cytotoxicity against human L02 cells incubated for 72 hrs by MTT assay; format: toxicity, cell-based
[4] = Selectivity index, ratio of IC50 for human L02 cells to IC50 for human SMMC-7721 cells; format: toxicity; conditions: L02 cells versus SMMC-7721 cells, read-out: Ratio IC50

Structure (SMILES)	IC50 (K562 [1]) [nM]	IC50 (SW480) [nM]	IC50 (MDA-MB-231) [nM]	IC50 (SMMC-7721) [nM]	Ratio IC50 (K562 [2])	IC50 at 72 h [3] [nM]	selectivity ratio [4]
C=C1C(=O)[C@@]23C(=O)OC[C@]4(C=CCC(C)(C)[C@H]4C=O)[C@@H]2CC[C@@H]1[C@H]3OC(=O)/C=C/c1ccncc1	590	820	750	1710	7	–	–
C=C1C(=O)[C@@]23C(=O)OC[C@]4(C=CCC(C)(C)[C@H]4C=O)[C@@H]2CC[C@@H]1[C@H]3OC(=O)/C=C/c1ccc[nH]1	1440	2450	3990	2990	–	–	–
C=C1C(=O)[C@@]23C(=O)O[C@H]4CCC(C)(C)[C@H]5C(=O)OC[C@]45[C@H]2CC[C@@H]1[C@H]3OC(=O)/C=C/c1cncnc1	930	1020	2170	1980	–	–	–
C=C1C(=O)[C@@]23C(=O)OC[C@]4(C=CCC(C)(C)[C@H]4C=O)[C@@H]2CC[C@@H]1[C@H]3OC(=O)/C=C/C	1880	3800	5120	3810	–	–	–
C=C1C(=O)[C@]23[C@H](O)[C@H]1CC[C@H]2[C@@]12CO[C@]3(O)[C@@H](O)[C@@H]1C(C)(C)CC[C@@H]2O [ORIDONIN]	4250	10600	–	14400	–	25000	1.74
C=C1C(=O)[C@@]23C(=O)OC[C@]4(C=CCC(C)(C)[C@H]4C=O)[C@@H]2CC[C@@H]1[C@H]3OC(=O)/C=C/c1ccnc(C)c1	980	1690	1480	1020	–	–	–
C=C1C(=O)[C@@]23C(=O)OC[C@]4(C=CCC(C)(C)[C@H]4C=O)[C@@H]2CC[C@@H]1[C@H]3OC(=O)/C=C/c1ccncc1F	540	730	840	620	–	–	–
C=C1C(=O)[C@@]23C(=O)OC[C@]4(C=CCC(C)(C)[C@H]4C=O)[C@@H]2CC[C@@H]1[C@H]3OC(=O)/C=C/c1ccccn1	560	660	1260	790	–	–	–
C=C1C(=O)[C@@]23C(=O)OC[C@]4(C=CCC(C)(C)[C@H]4C=O)[C@@H]2CC[C@@H]1[C@H]3OC(=O)/C=C/c1ccccc1	1500	3550	3230	3150	–	–	–
C=C1C(=O)[C@@]23C(=O)O[C@H]4CCC(C)(C)[C@H]5C(=O)OC[C@]45[C@H]2CC[C@@H]1[C@H]3O	5520	6600	7620	5670	–	–	–
C=C1C(=O)[C@@]23C(=O)OC[C@]4(C=CCC(C)(C)[C@H]4C=O)[C@@H]2CC[C@@H]1[C@H]3OC(=O)/C=C/c1ccc2c(c1)OCO2	1850	3490	3070	3170	–	–	–
C=C1C(=O)[C@@]23C(=O)OC[C@]4(C=CCC(C)(C)[C@H]4C=O)[C@@H]2CC[C@@H]1[C@H]3OC(=O)/C=C/c1ccc2ccccc2c1	1890	3100	2430	2200	–	–	–

The remaining compounds from weak to strong by IC50 (K562 [1]), led by results:

IC50 (K562 [1]) [nM]	IC50 (SW480) [nM]	IC50 (MDA-MB-231) [nM]	IC50 (SMMC-7721) [nM]	Structure (SMILES)	Ratio IC50 (K562 [2])	IC50 at 72 h [3] [nM]	selectivity ratio [4]
2440	3270	3760	3840	C=C1C(=O)[C@@]23C(=O)OC[C@]4(C=CCC(C)(C)[C@H]4C=O)[C@@H]2CC[C@@H]1[C@H]3OC(=O)/C=C/c1ccsc1	–	–	–
1820	2280	2920	2790	C=C1C(=O)[C@@]23C(=O)OC[C@]4(C=CCC(C)(C)[C@H]4C=O)[C@@H]2CC[C@@H]1[C@H]3OC(=O)/C=C/c1ccco1	–	–	–
1270	2770	2860	3740	C=C1C(=O)[C@@]23C(=O)OC[C@]4(C=CCC(C)(C)[C@H]4C=O)[C@@H]2CC[C@@H]1[C@H]3O	–	–	–
1230	3350	5160	3000	C=C1C(=O)[C@@]23C(=O)OC[C@]4(C=CCC(C)(C)[C@H]4C=O)[C@@H]2CC[C@@H]1[C@H]3OC(=O)/C=C/c1ccc2ccccc2n1	–	–	–
910	760	1080	1080	C=C1C(=O)[C@@]23C(=O)O[C@H]4CCC(C)(C)[C@H]5C(=O)OC[C@]45[C@H]2CC[C@@H]1[C@H]3OC(=O)/C=C/c1ccncc1C	–	–	–
750	980	2260	1980	C=C1C(=O)[C@@]23C(=O)OC[C@]4(C=CCC(C)(C)[C@H]4C=O)[C@@H]2CC[C@@H]1[C@H]3OC(=O)/C=C/c1cncnc1	–	–	–
750	1110	790	920	C=C1C(=O)[C@@]23C(=O)OC[C@]4(C=CCC(C)(C)[C@H]4C=O)[C@@H]2CC[C@@H]1[C@H]3OC(=O)/C=C/c1ccnc(F)c1	–	–	–
680	970	870	990	C=C1C(=O)[C@@]23C(=O)O[C@H]4CCC(C)(C)[C@H]5C(=O)OC[C@]45[C@H]2CC[C@@H]1[C@H]3OC(=O)/C=C/c1ccncc1F	–	–	–
680	940	830	960	C=C1C(=O)[C@@]23C(=O)O[C@H]4CCC(C)(C)[C@H]5C(=O)OC[C@]45[C@H]2CC[C@@H]1[C@H]3OC(=O)/C=C/c1ccnc(OC)c1	–	–	–
650	780	760	810	C=C1C(=O)[C@@]23C(=O)O[C@H]4CCC(C)(C)[C@H]5C(=O)OC[C@]45[C@H]2CC[C@@H]1[C@H]3OC(=O)/C=C/c1ccnc(F)c1	–	–	–
550	700	820	840	C=C1C(=O)[C@@]23C(=O)O[C@H]4CCC(C)(C)[C@H]5C(=O)OC[C@]45[C@H]2CC[C@@H]1[C@H]3OC(=O)/C=C/c1ccncc1	8	–	–
420	580	870	800	C=C1C(=O)[C@@]23C(=O)OC[C@]4(C=CCC(C)(C)[C@H]4C=O)[C@@H]2CC[C@@H]1[C@H]3OC(=O)/C=C/c1ccncc1OC	–	–	–
